In patent US20070065484A1, “In situ occlusion using natural biodegradable polysaccharides” (priority 2005, published 2007):
Read-outs that look alike come from different tables or passages of the source.

Test system: PC-12 cells
Conditions: incubation 15 min
Description: Cell suspensions were prepared as follows: PC-12 cells (ATCC; passage 5; 75% confluency) were harvested from a T-75 flask using Trypsin-EDTA for 2 minutes. The cells were placed in a 15 mL polyethylene conical (VWR) and centrifuged in F-12k media without serum for 4 minutes at 500 rpm. The cells were counted using a hemocytometer, centrifuged for 4 minutes at 500 rpm, and resuspended at 600,000 cells/mL in sterile PBS.
In order to determine the effect of individual components of the matrix forming compositions on cell viability, solutions A-G were independently mixed with PC-12 cells. 50 uL of cell suspension was added to 350 uL of solutions A-G (Table 4). After a 15 minute incubation, cell viability was assessed using a Live/Dead™ Viability/Cytotoxicity Kit (cat. # L3224; Molecular Probes, Eugene, Oreg.).
The effect of a formed matrix on cell viability was also tested. To form the PD-A matrix, solution #1 (200 mg PD-A, 10 uL TEMED, 20 uL 1N HCl, 470 uL PBS) was added in the amount of 200 uL to a 1.6 ml eppendorf (VWR). Solution #2 (400 mg PD-A, 10 mg Potassium persulfate, 75K PC-12 cells, 500 uL PBS ) was added in the amount of 200 uL to solution #1 in the eppendorf and mixed for 10 seconds. After a 15 minute incubation, cell viability was assessed using the Live/Dead™ Viability/Cytotoxicity Kit.

N.N.O=S(=O)(O)OOS(=O)(=O)O [Ammonium persulfate]
Cell viability (%) (10 mg/ml in PBS): 90% | Cell viability (%) (120 mg/ml in PBS): 90%

O=S(=O)([O-])OOS(=O)(=O)[O-].[K+].[K+] [Potassium persulfate]
Cell viability (%) (10 mg/ml in PBS): 90%

O=S(=O)([O-])OOS(=O)(=O)[O-].[Na+].[Na+] [Sodium persulfate]
Cell viability (%) (5 mg/ml in PBS): 90%

CN(C)CCN(C)C [TEMED/PBS, N,N,N′,N′-Tetramethylethylenediamine]
Cell viability (%) (0.2% (V/V) in PBS): 10-30%
